According to US7741351B2, “Compounds which potentiate glutamate receptor and uses thereof in medicine” (Glaxo Group Limited, priority 2004, dated 2010):
pEC50: −log10 of the molar value.

Target: T1, human GluR2 flip (unedited) AMPA receptor subunit (Homo sapiens, UniProt P42262)
T1 construct: expressed in transfected cells
Test: Calcium influx fluorescence assay (FLUO4, potentiation of glutamate response)
Assay type: cell-based
Details: Assay a); HEK 293 cells expressing human GluR2 flip (unedited); 100 μM glutamate final; peak fluorescence
Procedure: The ability of the compounds of the invention to potentiate glutamate receptor-mediated response were determined a) by using fluorescent calcium-indicator dyes such as FLUO4 and b) by measuring glutamate-evoked current recorded from human GluR2 flip unedited HEK293 cells.
a) Calcium Influx Fluorescence Assay
384 well plates were prepared containing confluent monolayer of HEK 293 cells either stably expressing or transiently transfected with human GluR2 flip (unedited) AMPA receptor subunit. These cells form functional homotetrameric AMPA receptors. […]
The cell plate was then transferred into a fluorescence imaging plate based reader [such as the FLIPR384 (Molecular Devices)]. A baseline fluorescence reading was taken over a 10 to 240 second period, and then 10 μL from each plate containing a compound of the invention made up in standard buffer solution (in a concentration range from 100 μM to 10 pM) was added (to give a final concentration in the range 30 μM to 3 pM). The fluorescence was read over 5 minute period. […] The fluoresecence was then read over a 4 minute period. The activities of the compounds of the invention and reference compounds were determined by measuring peak fluorescence after the last addition. The activity can also be expressed relative to the fluorescence increase induced by cyclothiazide at their maximum response (i.e. greater than 30 μM).

T1 sequence (P42262 25-883 isoform P42262-2 limits assumed): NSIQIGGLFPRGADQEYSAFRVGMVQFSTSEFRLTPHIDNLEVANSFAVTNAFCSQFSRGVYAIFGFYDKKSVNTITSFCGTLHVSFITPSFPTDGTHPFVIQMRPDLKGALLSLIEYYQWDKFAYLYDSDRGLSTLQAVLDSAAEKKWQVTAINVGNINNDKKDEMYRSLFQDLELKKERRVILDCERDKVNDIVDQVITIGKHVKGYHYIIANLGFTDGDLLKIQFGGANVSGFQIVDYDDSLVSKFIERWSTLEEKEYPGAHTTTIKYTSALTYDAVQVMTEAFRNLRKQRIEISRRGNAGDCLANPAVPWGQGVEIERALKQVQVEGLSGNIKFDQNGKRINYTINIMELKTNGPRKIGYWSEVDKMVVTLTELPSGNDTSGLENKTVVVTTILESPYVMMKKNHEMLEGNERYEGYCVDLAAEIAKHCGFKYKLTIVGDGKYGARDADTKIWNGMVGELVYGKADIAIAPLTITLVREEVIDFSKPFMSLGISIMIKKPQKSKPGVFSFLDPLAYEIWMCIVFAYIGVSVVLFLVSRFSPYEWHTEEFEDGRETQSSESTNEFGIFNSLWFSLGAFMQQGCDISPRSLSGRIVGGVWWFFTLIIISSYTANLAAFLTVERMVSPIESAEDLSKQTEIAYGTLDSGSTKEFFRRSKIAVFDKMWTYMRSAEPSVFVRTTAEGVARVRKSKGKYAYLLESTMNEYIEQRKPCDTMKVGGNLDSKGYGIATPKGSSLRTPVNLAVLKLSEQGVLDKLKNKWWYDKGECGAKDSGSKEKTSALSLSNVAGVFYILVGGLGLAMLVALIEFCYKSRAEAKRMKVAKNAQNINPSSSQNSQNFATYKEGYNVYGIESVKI

With CCS(=O)(=O)Nc1cccc(-c2ccc3c(c2)CC(NS(=O)(=O)C(C)C)C3)c1 (stereo not shown) [Example 6, N-(5-{3-[(ethylsulfonyl)amino]phenyl}-2,3-dihydro-1H-inden-2-yl)-2-propanesulfonamide] the pEC50 was 5.50.
